Results: patent publication US20250205208A1, “USE OF SU3327 IN PREPARATION OF MEDICAMENT FOR REDUCING CYTOTOXICITY AND NEPHROTOXICITY OF POLYMYXIN” (XIAMEN HANLIXIN PHARMACEUTICAL CO., LTD., priority 2023, published 2025)

Legend:
JNK and JIP = conditions: read-out: IC50 for inhibition of protein interaction between JNK and JIP; cited from earlier work
E. coli = conditions: laboratory tests, Collins group, Cell 2020; cited from earlier work
[1] = test system: mice having kidney damage induced by Polymyxin E; assay: Mouse model of nephrotoxicity by Polymyxin E: kidney histopathology and semiquantitative scoring (SQS); assay type: in vivo, C57BL/6 mice; conditions: for pathological damage score: 10 days, P<0.001
Procedure: (§1) C57BL/6 mice, male, 8-week-old, weighing 20-22 g, purchased from Vital River Laboratory Animal Technology Co., Ltd.
(§2) The mice were housed in the National Center for Veterinary Drug Safety Evaluation of China Agricultural University, fed with routine pelleted feed and free access to water, at a controlled temperature of (22±2)° C., and a humidity of (50±10) %. Adaptive housing was performed for 1 week before experiments.
(§3) […] were randomly divided into 6 groups (n=8 in each group), as follows:
(§4) Control group: the mice were intraperitoneally injected with an equivalent amount of normal saline.
(§5) Polymyxin E model group: the mice were intraperitoneally injected with Polymyxin E
(§6) at a single dose of 10 mg/kg body weight, twice a day, with an interval of 8 hours between doses; i.e., the mice were administered with Polymyxin E in 20 mg/kg body weight per day.
(§7) SU3327 control group: the mice were intraperitoneally injected with dissolved SU3327 at a single dose of 10 mg/kg body weight, once a day for 10 straight days; i.e., the mice were administered with SU3327 in 10 mg/kg body weight per day.
(§8) SU3327 high-dose protection group: the mice were intraperitoneally injected with SU3327 at a single dose of 10 mg/kg body weight, concurrently with Polymyxin E in 10 mg/kg, twice, with an interval of 8 hours between doses; i.e., the mice were administered with SU3327 in 10 mg/kg body weight per day, concurrently with Polymyxin E in 20 mg/kg body weight per day.
(§9) SU3327 medium-dose protection group: the mice were intraperitoneally injected with SU3327 at a single dose of 5 mg/kg body weight, concurrently with Polymyxin E in […], twice, with an interval of 8 hours between doses; i.e., the mice were administered with SU3327 in 5 mg/kg body weight per day, concurrently with Polymyxin E in 20 mg/kg body weight per day.
SU3327 low-dose protection group: the mice were intraperitoneally injected with SU3327 at a single dose of 2.5 mg/kg body weight, concurrently with Polymyxin E in 10 mg/kg, twice, with an interval of 8 hours between doses; i.e., the mice were administered with SU3327 in 2.5 mg/kg body weight per day, concurrently with Polymyxin E in 20 mg/kg body weight per day.
In the experiments above, reference was made to the previously published literature by the inventors for the method of establishing the mouse model of nephrotoxicity by Polymyxin E (Dai C, Tang S, Wang Y, Velkov T, Xiao X. Baicalein acts as a nephroprotectant that ameliorates colistin-induced nephrotoxicity by activating the antioxidant defence mechanism of the kidneys and down-regulating the inflammatory response. J Antimicrob Chemother. 2017 Sep. 1; 72(9):2562-2569).
Following dosing by injection for 10 straight days, the mice were euthanized by intraperitoneal injection with an overdose of sodium pentobarbital (80 mg/kg) 24 hours post the last dosing, and blood and kidney tissues were collected quickly, the serum and tissues were processed as follows.
The isolated, fresh kidney tissues were washed with normal saline, sampled and fixed in 10% neutral formalin for 48 h, after being flushed with water, and then dehydrated, cleared, immersed in paraffin, embedded, sectioned and stained in sequence. The pathological changes in kidney tissues were observed and photographed under a microscope. HE staining: the paraffin sections were taken, and placed in an oven at a constant temperature of 60° C. for 30 min; followed by paraffin removal and dehydration with ethanol, and immersing with double distilled water; hematoxylin staining for 10 min, rinsing with tap water, and differentiation with acid alcohol; flushing with running water until the sections turned blue; 95% ethanol for 30 s, alcoholic eosin staining for 30 s, 95% ethanol for 30 s, and 100% ethanol for 30 s; clearing with Xylene, and sealing with neutral gum.
Following HE staining, damages to the renal tissues were evaluated using a semiquantitative scoring (SQS). […]

Akt kinases = conditions: cited from earlier work
Clostridium difficile = conditions: laboratory tests, Collins group, Cell 2020; cited from earlier work
JNK = conditions: read-out: IC50 as JNK inhibitor; cited from earlier work
p38α = p38α (Homo sapiens, UniProt Q16539); conditions: cited from earlier work
HEK293 cells = assay: Cell viability test by CCK-8 method; assay type: cell-based, Human
Procedure: Human Embryonic Kidney cells (HEK293), preserved by National Center for Veterinary Drug Safety Evaluation of China Agricultural University.
Cytotoxicity was determined by a CCK-8 method. After HEK293 cells (5×10^4 cells/well) were seeded onto 96-well tissue culture plates and cultured for 24 hours, the cells were treated with SU3327 or Polymyxin E alone or in combination, with SU3327 in a final concentration of 5 μM, 2.5 μM, 1.25 μM and 0.625 μM; Polymyxin E in a final concentration of 2 mM; combination groups of SU3327 and Polymyxin E: Polymyxin E (2 mM)+SU3327 (5 μM), Polymyxin E (2 mM)+SU3327 (2.5 μM), Polymyxin E (2 mM)+SU3327 (1.25 μM), Polymyxin E (2 mM)+SU3327 (0.625 μM), and control group (Control) 0.1% DMSO. Following continued culture for 24 h, a CCK-8 kit was used to detect the changes in cell viability.

[2] = test system: Mycobacterium tuberculosis; conditions: laboratory tests, Collins group, Cell 2020; cited from earlier work
[3] = test system: mice having kidney damage induced by Polymyxin E; assay: Mouse model of nephrotoxicity by Polymyxin E: urea nitrogen and creatinine in serum; assay type: in vivo, C57BL/6 mice
Procedure: as §1, §2, §3, §4, §5, §6, §7, §8, §9
SU3327 low-dose protection group: the mice were intraperitoneally injected with SU3327 at a single dose of 2.5 mg/kg body weight, concurrently with Polymyxin E in 10 mg/kg, twice, with an interval of 8 hours between doses; i.e., the mice were administered with SU3327 in 2.5 mg/kg body weight per day, concurrently with Polymyxin E in 20 mg/kg body weight per day. […]
The blood samples collected from the mice were centrifuged at 3000 rpm for 10 min, and the supernatant was aspirated. The changes of urea nitrogen in serum and creatinine in serum were detected by an automatic biochemical detector.

[4] = in vivo; cited from earlier work
[5] = SU3327 at 2.5, 5 and 10 mg/kg i.p. in combination with Polymyxin E 20 mg/kg per day, 10 days
[6] = Polymyxin E 20 mg/kg per day i.p. for 10 straight days

Sequence of p38α (Q16539 whole entry): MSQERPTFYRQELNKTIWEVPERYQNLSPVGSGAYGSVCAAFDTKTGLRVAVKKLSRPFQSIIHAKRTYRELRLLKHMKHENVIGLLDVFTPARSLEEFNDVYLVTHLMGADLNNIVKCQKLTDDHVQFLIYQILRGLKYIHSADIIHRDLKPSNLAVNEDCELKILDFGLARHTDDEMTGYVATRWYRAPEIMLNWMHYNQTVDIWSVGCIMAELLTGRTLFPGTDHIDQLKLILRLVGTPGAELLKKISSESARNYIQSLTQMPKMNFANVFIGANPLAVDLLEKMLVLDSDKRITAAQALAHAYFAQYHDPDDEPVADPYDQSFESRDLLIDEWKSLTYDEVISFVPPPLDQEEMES

Which IC50 (JNK and JIP) does the source give for Nc1nnc(Sc2ncc([N+](=O)[O-])s2)s1 [SU3327] here?
The IC50 was 239 nM.

What about the “growth of E. coli” value (E. coli) of the same compound?
Its value is “effectively prevented the growth”.

What about the pathological damage score ([1]; SU3327 2.5 mg/kg i.p. in combination with Polymyxin E 20 mg/kg per day) of the same compound?
Its pathological damage score is 1.

And the pathological damage score ([1]; SU3327 5 mg/kg i.p. in combination with Polymyxin E 20 mg/kg per day)?
The pathological damage score was 0.75.

What about the pathological damage score ([1]; SU3327 10 mg/kg i.p. in combination with Polymyxin E 20 mg/kg per day) of the same compound?
The pathological damage score was 0.5.

What about the “pathological changes in renal tubules” value ([1]; SU3327 in combination with Polymyxin E) of the same compound?
Its value is “remarkably improved”.

And the “activity for Akt kinases” value (Akt kinases)?
The value was “low activity”.

What about the “killing of Clostridium difficile” value (Clostridium difficile) of the same compound?
Its value is “killed”.

What about the IC50 (JNK) of the same compound?
Its IC50 is 700 nM.

And the “activity for p38α” value (p38α)?
The value was “low activity”.

And the cell viability (HEK293 cells; SU3327 2.5 μM in combination with Polymyxin E 2 mM, 24 h)?
The cell viability was 68.5%.

What about the “cell viability compared to treatment group with polymyxin alone” value (HEK293 cells; SU3327 (5-0.625 μM) in combination with Polymyxin E 2 mM, 24 h) of the same compound?
Its value is “increased to some extent”.

What about the “cell viability compared with control group” value (HEK293 cells; SU3327 alone in 5 μM, 2.5 μM, 1.25 μM and 0.625 μM, 24 h) of the same compound?
The value was “significantly changed”.

What about the “killing of Mycobacterium tuberculosis” value [2] of the same compound?
Its value is “killed”.

And the “level of creatinine in the serum compared to Polymyxin E model group” value [3, 5]?
The value was “significantly lowered”.

And the “level of urea nitrogen in the serum compared to Polymyxin E model group” value [3, 5]?
Its value is “significantly lowered”.

Which results are given for Polymyxin E?
average of pathological semiquantitative score [1, 6]: 3; kidney pathological damages (epithelial cell shedding, necrosis, tubular casts) [1, 6]: obvious pathological damages; clinical incidence of nephrotoxicity [4]: up to 60%; clinical incidence of neurotoxicity [4]: about 7%; clinical incidence of symptoms from mild peripheral neurotoxicity [4]: ≤ 100%; cell viability (HEK293 cells; polymyxin alone 2 mM, 24 hours): 55.3%; level of BUN in the serum compared to control group [3, 6]: significantly up-regulated; level of CRE in the serum compared to control group [3, 6]: significantly up-regulated
